Data as given in PMC8528049, “Expanding the scope of native chemical ligation – templated small molecule drug synthesis via benzanilide formation” (Chemical Science, 2021).
Like-named read-outs stand apart in the source and are kept apart here.

Assays:
[1] = system: Bcr–Abl; conditions: cited from earlier work
[2] = target: non-phosphorylated Abl1 kinase (Homo sapiens, UniProt P00519); assay: KdELECT assay (DiscoverX), dissociation constants with Abl1 kinase
[3] = system: K562 cells; assay: alamarBlue cell viability assay on K562 cells; assay type: cell-based; conditions: Homo sapiens
Procedure: Cell culture and cell viability assay
K562 cells were cultured in DMEM supplemented with 10% FCS, 4 mM glutamine, 100 U · mL-1 […]
assays , c e l ls were seeded on a 96-well plate (10000 cells/well), followed by the immediate addition of the test compounds (100 µL, serial dilutions in medium). Untreated cells were used as controls and complete medium without cells was used to determine the background signal o f the assay . Afte r […]
1:10, v:v, in PBS) was added to each well. […]
reader from PerkinElmer (Waltham, USA). IC 50 values were calculated from triplicates w it h a 1 3 -po i n t dose-response curve using the Hill equation. […]

[4] = Dissociation constant (Kd) of complexes formed with Abl1 kinase, non-phosphorylated Abl1 kinase, calculated from quadruplicates, mean ± SD
[5] = Kd, Replicate 1, non-phosphorylated Abl1 kinase, single replicate 1, Hill equation
[6] = Kd, Replicate 2, non-phosphorylated Abl1 kinase, single replicate 2, Hill equation
[7] = Kd, Replicate 3, non-phosphorylated Abl1 kinase, single replicate 3, Hill equation
[8] = Kd, Replicate 4, non-phosphorylated Abl1 kinase, single replicate 4, Hill equation
[9] = 96 h, single replicate 1, read-out: IC50, Replicate 1
[10] = 96 h, single replicate 2, read-out: IC50, Replicate 2
[11] = 96 h, single replicate 3, read-out: IC50, Replicate 3
[12] = 96 h treatment, calculated from triplicates, read-out: IC50 on K562 cells, determined by alamarBlue assay

Chain of non-phosphorylated Abl1 kinase (P00519 whole entry): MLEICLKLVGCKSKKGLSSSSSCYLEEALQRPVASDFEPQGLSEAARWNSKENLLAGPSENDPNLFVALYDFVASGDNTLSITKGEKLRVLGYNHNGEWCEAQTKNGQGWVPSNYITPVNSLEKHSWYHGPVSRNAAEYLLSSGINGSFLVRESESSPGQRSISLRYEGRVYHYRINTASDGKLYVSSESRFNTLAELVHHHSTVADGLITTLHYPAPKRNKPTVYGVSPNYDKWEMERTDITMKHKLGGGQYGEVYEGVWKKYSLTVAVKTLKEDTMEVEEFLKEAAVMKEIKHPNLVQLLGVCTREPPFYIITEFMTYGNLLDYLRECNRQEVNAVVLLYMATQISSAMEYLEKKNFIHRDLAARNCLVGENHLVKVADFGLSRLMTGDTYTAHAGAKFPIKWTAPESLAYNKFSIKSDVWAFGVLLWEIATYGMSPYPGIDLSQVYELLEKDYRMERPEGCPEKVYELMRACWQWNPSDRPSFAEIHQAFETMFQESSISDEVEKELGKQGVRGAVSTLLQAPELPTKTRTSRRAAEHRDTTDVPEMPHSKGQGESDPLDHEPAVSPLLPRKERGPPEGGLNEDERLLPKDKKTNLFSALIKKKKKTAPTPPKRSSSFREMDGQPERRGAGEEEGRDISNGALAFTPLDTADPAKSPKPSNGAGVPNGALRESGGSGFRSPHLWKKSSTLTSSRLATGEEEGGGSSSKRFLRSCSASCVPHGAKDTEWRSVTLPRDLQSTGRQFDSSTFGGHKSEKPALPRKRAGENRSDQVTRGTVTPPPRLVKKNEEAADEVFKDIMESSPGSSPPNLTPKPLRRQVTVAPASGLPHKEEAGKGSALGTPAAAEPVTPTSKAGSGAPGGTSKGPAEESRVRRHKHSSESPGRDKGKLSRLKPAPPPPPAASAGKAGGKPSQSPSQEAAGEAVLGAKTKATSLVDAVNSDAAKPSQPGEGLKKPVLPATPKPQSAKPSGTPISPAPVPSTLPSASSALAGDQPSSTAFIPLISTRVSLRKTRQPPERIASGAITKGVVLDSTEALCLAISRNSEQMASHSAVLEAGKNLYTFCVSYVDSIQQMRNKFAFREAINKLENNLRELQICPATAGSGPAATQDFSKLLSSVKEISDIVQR

| SMILES | IC50 for inhibition of kinases such as Bcr–Abl [1] | Kd [2, 4] [nM] | Kd [2, 5] [nM] | Kd [2, 6] [nM] | Kd [2, 7] [nM] | Kd [2, 8] [nM] | IC50 [3, 9] [nM] | IC50 [3, 10] [nM] | IC50 [3, 11] [nM] | IC50 [3, 12] [nM] |
| --- | --- | --- | --- | --- | --- | --- | --- | --- | --- | --- |
| Cc1ccc(C(=O)Nc2ccc(CN3CCN(C)CC3)c(C(F)(F)F)c2)cc1C#Cc1cnc2[nH]ncc2c1 [GZD824 (3), GZD824, reference compound] | low nanomolar range | 0.6 ± 0.3 | 1 | 0.7 | 0.3 | 0.4 | – | – | – | – |
| Cc1ccc(C(=O)Nc2cc(C(F)(F)F)c(CN3CCN(C)CC3)cc2S)cc1C#Cc1cnc2[nH]ncc2c1 [GZD824-SH (3a)] | – | 0.9 ± 0.4 | 1.2 | 1.4 | 0.5 | 0.5 | – | – | – | – |
| Cc1cn(-c2cc(NC(=O)c3ccc(C)c(Nc4nccc(-c5cccnc5)n4)c3)cc(C(F)(F)F)c2)cn1 [Nilotinib (1), Nilotinib] | low nanomolar range | – | – | – | – | – | – | – | – | – |
| Cc1cn(-c2cc(C(F)(F)F)cc(NC(=O)c3ccc(C)c(Nc4nccc(-c5cccnc5)n4)c3)c2S)cn1 [Nilotinib-SH (1a)] | – | 881 ± 151 | 1140 | 793 | 791 | 797 | – | – | – | – |
| Cc1ccc(C(=O)Nc2ccc(CN3CCN(C)CC3)c(C(F)(F)F)c2)cc1C#Cc1cnc2cccnn12 [Ponatinib (2), Ponatinib, reference compound] | – | – | – | – | – | – | 3.5 | 3.6 | 3.1 | 3.4 ± 0.2 |
| Cc1ccc(-c2nc3cc(C(F)(F)F)c(CN4CCN(C)CC4)cc3s2)cc1C#Cc1cnc2cccnn12 [Ponatinib-BT (2b)] | – | 8.4 ± 2.3 | 11.6 | 9.5 | 6.4 | 6.2 | 118 | 115 | 126 | 120 ± 5 |
| Cc1ccc(C(=O)Nc2cc(C(F)(F)F)c(CN3CCN(C)CC3)cc2S)cc1C#Cc1cnc2cccnn12 [Ponatinib-SH (2a)] | – | 0.6 | 0.5 | 0.7 | 0.6 | 0.6 | 392 | 343 | 326 | 354 ± 28 |
